# Conditions: buffer; pH 7.4; 200.0 µM
row,Structure (SMILES),solubility kinetic
1,N#Cc1cnc(NCc2ccc(Cl)cc2Cl)nc1,0.5 µg/mL
2,CC1CCC(N(CCCN)Cc2ccco2)CC1C (stereo not drawn),31.6 µg/mL
3,CC(=O)/C(C#N)=C1\NC(=O)C(Cc2ccccc2C)S1 (stereo not drawn),> 43 µg/mL
4,Cc1nc2ccccn2c1C(=O)NN=C1CCN(C)CC1,> 42.8 µg/mL
5,Cc1ccc(CN2CCN(c3ccccc3Cl)CC2)o1,10 µg/mL
6,COC(=O)Cn1cnc2scc(-c3ccc(C)c(C)c3)c2c1=O,33.7 µg/mL
7,NC(=O)Cn1ccc(O)c(Cc2ccc(Cl)cc2Cl)c1=O,> 49.1 µg/mL
8,Nc1c2c(nn1-c1ccccc1)CCC2,> 29.9 µg/mL
9,CCc1cc2ccccc2nc1SCC(=O)NC1CCCC1,0.3 µg/mL
10,CSCCC1NC(=O)N(CC(=O)Nc2ccc(Cl)c(S(=O)(=O)N3CCOCC3)c2)C1=O (stereo not drawn),> 73.6 µg/mL
11,O=C1N(c2ccccc2)C(c2cccnc2)N2CCCN12 (stereo not drawn),> 42 µg/mL
12,COc1ccc(OC)c(C(=O)COC(=O)c2cccnc2SC)c1,4.2 µg/mL
13,CN(Cc1ccccc1)C(=O)COC(=O)c1cc(=O)c2ccccc2o1,> 52.7 µg/mL
14,Cc1cc(C)nc(N2C(=O)CC(Cc3ccc(Cl)cc3)C2=O)n1 (stereo not drawn),> 49.5 µg/mL
15,COc1ccc(OCCC(=O)Nc2ccc(S(N)(=O)=O)cc2)cc1,48.1 µg/mL
16,CC(=O)O.NCC(c1ccco1)c1c[nH]c2ccccc12 (stereo not drawn),21.5 µg/mL
17,COc1ccc2ccccc2c1C1NC(=O)NC(C)=C1[N+](=O)[O-] (stereo not drawn),2.1 µg/mL
18,O=c1c2[nH]c3cccc(Cl)c3c2ncn1CC1CCCO1 (stereo not drawn),7.4 µg/mL
19,COc1ccc(OCCNS(=O)(=O)c2cccc([N+](=O)[O-])c2)cc1,16.4 µg/mL
20,O=C(C1CC1)N1CCN(c2ccc([N+](=O)[O-])cc2-n2cccc2)CC1,6.3 µg/mL
21,O=C(Nc1cc2c3c(c1)CC(=O)N3CCC2)C1CC1,> 38.4 µg/mL
22,CCc1ccccc1N1CN(Cc2cccnc2)CNC1=S,> 46.9 µg/mL
23,C=CCn1c(C)cc(-c2csc(NC)n2)c1C,8.5 µg/mL
24,CN(CCOc1ccccc1)CCOc1ccccc1,32.8 µg/mL

row,Structure (SMILES),solubility kinetic
1,CSc1ncccc1C(=O)OCC(=O)N1CCN(C(=O)c2ccco2)CC1,> 58.4 µg/mL
2,COc1ccccc1C(=O)NCCC(=O)NC1CCCCCC1,> 47.8 µg/mL
3,Cc1cccc(OCC(=O)NCCCNC(=O)c2ccccn2)c1,45.4 µg/mL
4,CCOC(=O)C(=O)N1CCN(c2ccccc2OC)CC1,> 43.9 µg/mL
5,Cc1ccc(NC(=O)COC(=O)c2cccnc2Cl)cc1S(=O)(=O)N1CCOCC1,66 µg/mL
6,O=S(=O)(c1cccs1)N1CCN(c2ccc(Cl)cc2)CC1,< 0.4 µg/mL
7,Cc1cc[n+](CCc2ccccc2)cc1C.[Br-],> 43.8 µg/mL
8,CC(NC(=O)COC(=O)c1cccs1)c1ccccc1 (stereo not drawn),11.9 µg/mL
9,O=C(/C=C/c1cccc(F)c1)Nc1cc(S(=O)(=O)N2CCOCC2)ccc1Cl,6.3 µg/mL
10,O=C(Nc1ccc(Nc2ccccc2)cc1)c1ccc(F)cc1,0.7 µg/mL
11,CN(C)C(C(=O)Nc1cc(Cl)cc(Cl)c1)c1ccccc1 (stereo not drawn),19.2 µg/mL
12,COc1cccc(OC)c1OC(=O)C1CC(=O)N(c2ccc3c(c2)OCCO3)C1 (stereo not drawn),> 59.9 µg/mL
13,CCc1nc(CN2CCN(c3cc(C(F)(F)F)ccn3)CC2)c(C)[nH]1,47.6 µg/mL
14,c1ccc(CNc2nc(-c3ccccn3)nc3ccccc23)cc1,29.1 µg/mL
15,O=C(O)COc1ccccc1/C=N/NC(=O)c1ccc(F)cc1,> 47.4 µg/mL
16,O=C(CNC(=O)c1ccccc1)OCC(=O)c1c[nH]c2ccccc12,18.6 µg/mL
17,Cc1cc(C)cc(NC(=O)C2CCCN2C(=O)NC2CCCCC2)c1 (stereo not drawn),0.7 µg/mL
18,CC(CCc1ccccc1)NC(=O)CN1CCSc2ccccc21 (stereo not drawn),20.1 µg/mL
19,Cc1ccccc1/C=C\c1nc2ccccc2c(=O)[nH]1,1.2 µg/mL
20,Cl.c1ccc2c(c1)CN1CCCC1=N2,> 31.3 µg/mL
21,CC(Sc1nnc(-c2ccccc2F)n1C1CC1)C(N)=O (stereo not drawn),> 46 µg/mL
22,CC1(C)Cc2nc3scc(NC(=O)c4ccccc4)c3cc2CO1,5.9 µg/mL
23,CCOC(=O)NC1Cc2ccccc2C1Sc1ccccn1 (stereo not drawn),44.8 µg/mL
24,COc1ccc(N(CC(=O)Nc2cccnc2)S(=O)(=O)c2ccccc2)cc1Cl,34.2 µg/mL

row,Structure (SMILES),solubility kinetic
1,C/C(=N\OCC(=O)NC(C)C)c1cccs1,32.5 µg/mL
2,O=c1[nH]cnc2sc3c(c12)CN(Cc1ccccc1)CC3,21.3 µg/mL
3,CN(CC(=O)Nc1ccccc1Cl)CC(=O)N(C)c1c(N)n(Cc2ccccc2)c(=O)[nH]c1=O,65.2 µg/mL
4,Cc1ccc(CN(C)c2ccc(S(=O)(=O)N3CCCC3)cn2)cc1,12.5 µg/mL
5,Cc1ccc(NC(=O)N2CCCCCC2)cc1C,> 37 µg/mL
6,O=C(c1ncc[nH]1)c1cccs1,> 26.7 µg/mL
7,CCC(=O)Nc1ccc(C2C(=O)c3ccccc3C2=O)cc1,> 44 µg/mL
8,COc1cc(C=O)ccc1OC(=O)c1cccnc1,33.7 µg/mL
9,Cc1sc2ncnc(NCC(O)c3ccc([N+](=O)[O-])cc3)c2c1C (stereo not drawn),5.5 µg/mL
10,COc1ccc2c(ccc[n+]2CC(=O)c2ccccc2)c1.[Br-],> 53.7 µg/mL
11,COc1cc(NC(=S)Nc2ccc3c(c2)OCCO3)cc(OC)c1OC,> 56.5 µg/mL
12,O=C(Cc1ccccc1[N+](=O)[O-])NCCc1ccc(F)cc1,44.6 µg/mL
13,COc1cccc2c1SCc1ccccc1C2CC(N)=O (stereo not drawn),39.2 µg/mL
14,Cc1onc(-c2ccccc2Cl)c1C(O)c1ccc(F)cc1 (stereo not drawn),46.6 µg/mL
15,COc1ccc(C(=O)NCc2ccccc2C)cc1S(=O)(=O)NC1CCCC1,33.6 µg/mL
16,Cc1ccc(S(=O)(=O)NCCN2CCOCC2)c(C)c1.Cl,> 50.2 µg/mL
17,Cc1ccc2c(c1)C1C[N+](C)(CC(=O)Nc3ccccc3Cl)CCC1N2C(=O)c1ccccc1Cl.[Cl-] (stereo not drawn),> 81.7 µg/mL
18,COc1ccc(Nc2ccc([N+](=O)[O-])cc2[N+](=O)[O-])cc1,1.5 µg/mL
19,O=C(c1cc(-c2ccc(F)cc2)nc2ccccc12)N1CCC1,> 46 µg/mL
20,CC(C)CN(C(=O)C1CC1)C1CCS(=O)(=O)C1 (stereo not drawn),> 38.9 µg/mL
21,COn1c(-c2ccccc2)c(C=O)c2ccccc21,2.4 µg/mL
22,Cc1cccc(NC(=O)c2cccnc2Oc2ccccc2)c1C(=O)O,> 52.3 µg/mL
23,Cc1cccc(NC(=O)[C@@H]2CCCN2C(=O)OC(C)(C)C)c1C,39.6 µg/mL
24,Cc1cc(C)c(C#N)c(SCC(=O)Nc2nonc2N)n1,15.3 µg/mL

row,Structure (SMILES),solubility kinetic
1,CCN(CC(=O)Nc1ccc2c(c1)OCCO2)C(=O)c1ccccc1Br,> 62.9 µg/mL
2,CC(=O)Nc1c(F)cc(Br)cc1F,> 37.5 µg/mL
3,CN(C)c1ccc([N+](=O)[O-])cc1C(=O)NCC(c1ccco1)N(C)C (stereo not drawn),47.7 µg/mL
4,COc1ccc(-c2csc(NC(=O)c3ccc(C(C)(C)C)cc3)c2C(=O)O)cc1,> 61.4 µg/mL
5,O=[N+]([O-])c1ccc(N2CCN(Cc3cccc([N+](=O)[O-])c3)CC2)cc1,7.3 µg/mL
6,CC(=O)N1Cc2ccccc2CC1C(=O)NCc1ccccc1F (stereo not drawn),> 49 µg/mL
7,Cc1nc(SCC(=O)N2CCOCC2)c2c(=O)n(C)c(=O)n(CC(C)C)c2n1,47.8 µg/mL
8,NC(N)=NC(N)=Nc1cccc2ccccc12,> 34.1 µg/mL
9,Cc1onc(-c2ccccc2)c1C(=O)N1CCN(c2ncccn2)CC1,> 52.4 µg/mL
10,Cc1cccc(NC(=O)c2ccccc2NC(=O)c2ccco2)c1,0.5 µg/mL
11,Cc1nn(C)c(C)c1/C=C/C(=O)O,> 27 µg/mL
12,Cc1nc(NC(=O)CN2CCOCC2)sc1C(=O)N(C)C,40 µg/mL
13,O=C(CN1C(=O)NC(CCc2ccccc2)C1=O)N1CCCCCC1 (stereo not drawn),> 51.5 µg/mL
14,Cc1ccnc(NC(=O)c2ccccc2NC(=O)c2ccccc2)c1,< 0.2 µg/mL
15,Cc1nc(-c2cccc(NC(=O)c3ccco3)c2)cs1,> 42.6 µg/mL
16,O=C(NCCc1c[nH]c2ccccc12)c1cnccn1,> 39.9 µg/mL
17,CS(=O)(=O)Nc1ccc(C(=O)Nc2ccc3ccccc3c2)cc1,< 0.4 µg/mL
18,Cc1ccccc1C1CCCN(Cc2nc(CC3CC3)no2)C1 (stereo not drawn),24.1 µg/mL
19,Cc1cc(=O)[nH]c(Nc2ccc(N(C)C)cc2)n1,> 36.6 µg/mL
20,COc1ccc(OCCn2cc(C=O)c3ccccc32)cc1,14.4 µg/mL
21,O=C(CN1CCCC1)Nc1ccc([N+](=O)[O-])cc1Cl,36.2 µg/mL
22,COC(=O)c1ccccc1Oc1ccc(NC(=O)CCCl)cc1,> 50.1 µg/mL
23,CCCCNC(=O)C1CCCN(S(=O)(=O)CC)C1 (stereo not drawn),> 41.5 µg/mL
24,O=C(Nc1cccnc1)c1cc(-c2ccc(Cl)cc2)on1,0.3 µg/mL

row,Structure (SMILES),solubility kinetic
1,CC(=O)O.O=S(=O)(CCc1ccncc1)C1Cc2cccc3cccc1c23 (stereo not drawn),49.4 µg/mL
2,Fc1ccc(-c2csc(-c3cccnc3)n2)cc1F,0.7 µg/mL
3,O=C(CCCc1nc(-c2ccccc2)no1)NC1CCCCC1,13.7 µg/mL
4,O=C(OCC(=O)c1ccc[nH]1)c1ccccc1,32.2 µg/mL
5,Cc1cc(CSc2ccccc2C(=O)O)on1,> 37.4 µg/mL
6,CC(C)Cn1c(N)c(C(=O)COC(=O)c2cc3ccccc3cc2O)c(=O)n(C)c1=O,4.5 µg/mL
7,Cc1cc(=O)oc2cc(NC(=O)c3ccccc3C(=O)O)ccc12,> 48.5 µg/mL
8,Cc1ccc(N2CC(C(=O)Nc3ccc4c(c3)OCO4)CC2=O)cc1C (stereo not drawn),1.8 µg/mL
9,FC(F)(F)c1ccnc(Oc2ccc(C3=NCCS3)cc2)c1,2.2 µg/mL
10,COC(=O)C1(C(C[N+](=O)[O-])c2ccc(C)cc2)C(=O)NCC1c1ccco1 (stereo not drawn),> 55.9 µg/mL
11,COc1cc(NC(=O)COC(C)=O)cc(OC)c1OC,39 µg/mL
12,O=C(Nc1ccncc1)c1ccc2ncsc2c1,35.6 µg/mL
13,CC1SCC(NC(=O)c2ccc(Cl)cc2)CS1 (stereo not drawn),39.2 µg/mL
14,O=C(c1ccc2nccnc2c1)N1CCN(c2ccccc2)CC1,> 47.8 µg/mL
15,O=C(COC(=O)c1ccc([N+](=O)[O-])s1)c1ccc[nH]1,22.5 µg/mL
16,NS(=O)(=O)c1ccc(CNC(=O)c2ccccn2)cc1,> 43.7 µg/mL
17,Cc1cccc(NC(=O)NCc2cccnc2)c1C,35.6 µg/mL
18,Cn1cccc1C(=O)NCCc1ccccc1,> 34.2 µg/mL
19,CN(C)C=Nc1ccc2nc3c(cc2c1)[nH]c1ccccc13,> 43.3 µg/mL
20,Cc1ccc(S(=O)(=O)N(C)C)cc1NC(=O)c1cc(-c2ccncc2)nc2ccccc12,10 µg/mL
21,CCOC(=O)c1sc(Nc2cccc(Cl)c2)nc1C,< 0.3 µg/mL
22,Cc1cc(C)c(C(=O)N(C)C2CCCN(Cc3ccccc3F)C2)o1 (stereo not drawn),> 51.7 µg/mL
